The source made the active and inactive calls. The rule behind the calls is not given here.
Tests used:
HSMC = assay: (§1) Antiproliferative activity against HSMC expressing Id-protein assessed as reduction in cell growth after 72 hrs by Coulter counting; assay type: functional; settings: Homo sapiens
[1] = biological target: T1, DNA-binding protein inhibitor ID-1 (Homo sapiens) (UniProt P41134); assay: Inhibition of ID1-protein in HSMC assessed as increase in alpha-actin protein level by Western blotting
T1 sequence (whole entry): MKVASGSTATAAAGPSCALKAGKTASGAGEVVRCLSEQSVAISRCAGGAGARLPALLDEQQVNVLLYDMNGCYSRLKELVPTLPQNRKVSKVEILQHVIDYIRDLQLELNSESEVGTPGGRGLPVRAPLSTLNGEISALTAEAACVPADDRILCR

[2] = as §1; assay type: functional, Homo sapiens; set-up: scale not given: the % may be the effect or the level left
[3] = biological target: T1, DNA-binding protein inhibitor ID-1 (Homo sapiens); assay: Inhibition of ID1-protein in HSMC assessed as increase in alpha-actin mRNA level by real time PCR
[4] = biological target: T1, DNA-binding protein inhibitor ID-1 (Homo sapiens); assay: Binding affinity to ID-HLH domain by CD spectroscoy
[5] = biological target: T1, DNA-binding protein inhibitor ID-1 (Homo sapiens); assay: Decrease in ID1-protein level in HSMC by Western blotting
[6] = Drug uptake by HSMC assessed as mean fluorescence index after 72 hrs by FACS; assay type: ADME; settings: human
[7] = Perinuclear localization in HSMC after 6 hrs by fluorescence microscopy; assay type: ADME, cell-based; settings: human
[8] = Inhibition of PDGF-stimulated HSMC migration after 8 hrs by Boyden chamber assay; assay type: functional, Homo sapiens; set-up: scale not given: the % may be the effect or the level left

Ac-LYDMNGCYSRLKELVPTLPQNRKVSKVEILQHVIDYIRDLQ-NH2
Activity (HSMC): Toxic

H-KVEILQHVIDYIRDLQ-OH
Activity (HSMC): inactive

CC[C@H](C)[C@H](NC(=O)[C@H](CCC(=O)O)NC(=O)[C@@H](NC(=O)[C@H](CCCCN)NC(=O)[C@H]1CC[C@@H]([C@H](NC(=O)c2ccccc2)C(=O)N[C@@H](CCCCN)C(=O)N[C@H](C(=O)N[C@@H](CCC(=O)O)C(=O)N[C@H](C(=O)N[C@@H](CC(C)C)C(=O)N[C@@H](CCC(N)=O)C(=O)N[C@@H](Cc2cnc[nH]2)C(=O)N[C@H](C(=O)N[C@H](C(=O)N[C@@H](CC(=O)O)C(=O)N[C@@H](Cc2ccc(O)cc2)C(N)=O)[C@@H](C)CC)C(C)C)[C@@H](C)CC)C(C)C)C1)C(C)C)C(=O)N[C@@H](CC(C)C)C(=O)N[C@@H](CCC(N)=O)C(=O)N[C@@H](Cc1cnc[nH]1)C(=O)N[C@H](C(=O)N[C@H](C(=O)N[C@@H](CC(=O)O)C(=O)N[C@@H](Cc1ccc(O)cc1)C(N)=O)[C@@H](C)CC)C(C)C
Activity [1]: Dose-dependent effect
Activity [2]: 40%
Activity [3]: Dose-dependent effect
K0.5 [4]: 6.6 µM
Activity [5]: Active

CC[C@H](C)[C@H](NC(=O)[C@H](CCC(=O)O)NC(=O)[C@@H](NC(=O)[C@H](CCCCN)NC(=O)[C@H]1CC[C@@H]([C@H](NC(=O)c2cccc3c2C(=O)OC32c3ccc(O)cc3Oc3cc(O)ccc32)C(=O)O[C@@H](CCCCN)C(=O)N[C@H](C(=O)N[C@@H](CCC(=O)O)C(=O)N[C@H](C(=O)N[C@@H](CC(C)C)C(=O)N[C@@H](CCC(N)=O)C(=O)N[C@@H](Cc2cnc[nH]2)C(=O)N[C@H](C(=O)N[C@H](C(=O)N[C@@H](CC(=O)O)C(=O)N[C@@H](Cc2ccc(O)cc2)C(=O)N[C@@H](CCCCN)C(=O)N[C@@H](CCCCN)C(=O)N[C@@H](CCCCN)C(N)=O)[C@@H](C)CC)C(C)C)[C@@H](C)CC)C(C)C)C1)C(C)C)C(=O)N[C@@H](CC(C)C)C(=O)N[C@@H](CCC(N)=O)C(=O)N[C@@H](Cc1cnc[nH]1)C(=O)N[C@H](C(=O)N[C@H](C(=O)N[C@@H](CC(=O)O)C(=O)N[C@@H](Cc1ccc(O)cc1)C(=O)N[C@@H](CCCCN)C(=O)N[C@@H](CCCCN)C(=O)N[C@@H](CCCCN)C(N)=O)[C@@H](C)CC)C(C)C
Activity [6]: Dose-dependent effect
Activity [7]: Active

CC[C@H](C)[C@H](NC(=O)[C@H](CCC(=O)O)NC(=O)[C@@H](NC(=O)[C@H](CCCCN)NC(=O)C1CCC(C(NC(=O)c2ccccc2)C(=O)N[C@@H](CCCCN)C(=O)N[C@H](C(=O)N[C@@H](CCC(=O)O)C(=O)N[C@H](C(=O)N[C@@H](CC(C)C)C(=O)N[C@@H](CCC(N)=O)C(=O)N[C@@H](Cc2cnc[nH]2)C(=O)N[C@H](C(=O)N[C@H](C(=O)N[C@@H](CC(=O)O)C(=O)N[C@@H](Cc2ccc(O)cc2)C(N)=O)[C@@H](C)CC)C(C)C)[C@@H](C)CC)C(C)C)C1)C(C)C)C(=O)N[C@@H](CC(C)C)C(=O)N[C@@H](CCC(N)=O)C(=O)N[C@@H](Cc1cnc[nH]1)C(=O)N[C@H](C(=O)N[C@H](C(=O)N[C@@H](CC(=O)O)C(=O)N[C@@H](Cc1ccc(O)cc1)C(N)=O)[C@@H](C)CC)C(C)C (stereo partly drawn)
Activity [2]: 40%
Activity [8]: 20%

CC[C@H](C)[C@H](NC(=O)[C@H](Cc1ccc(O)cc1)NC(=O)[C@H](CC(=O)O)NC(=O)[C@@H](NC(=O)[C@@H](NC(=O)[C@H](Cc1cnc[nH]1)NC(=O)[C@H](CCC(N)=O)NC(=O)[C@H](CC(C)C)NC(=O)[C@@H](NC(=O)[C@H](CCC(=O)O)NC(=O)[C@@H](NC(=O)[C@H](CCCCN)NC(=O)C1CCC(C(NC(=O)c2ccccc2)C(=O)N[C@@H](CCCCN)C(=O)N[C@H](C(=O)N[C@@H](CCC(=O)O)C(=O)N[C@H](C(=O)N[C@@H](CC(C)C)C(=O)N[C@@H](CCC(N)=O)C(=O)N[C@@H](Cc2cnc[nH]2)C(=O)N[C@H](C(=O)N[C@H](C(=O)N[C@@H](CC(=O)O)C(=O)N[C@@H](Cc2ccc(O)cc2)C(=O)N[C@H](C(=O)N[C@@H](CCCNC(=N)N)C(=O)N[C@@H](CC(C)C)C(=O)N[C@@H](CC(=O)O)C(=O)N[C@@H](CCC(N)=O)C(N)=O)[C@@H](C)CC)[C@@H](C)CC)C(C)C)[C@@H](C)CC)C(C)C)C1)C(C)C)[C@@H](C)CC)C(C)C)[C@@H](C)CC)C(=O)N[C@@H](CCCNC(=N)N)C(=O)N[C@@H](CC(C)C)C(=O)N[C@@H](CC(=O)O)C(=O)N[C@@H](CCC(N)=O)C(N)=O (stereo partly drawn)
Activity [2]: 30%

CC[C@H](C)[C@H](NC(=O)[C@H](CCC(=O)O)NC(=O)[C@@H](NC(=O)[C@H](CCCCN)NC(=O)[C@@H]1CC[C@H]([C@@H](NC(=O)c2ccccc2)C(=O)N[C@@H](CCCCN)C(=O)N[C@H](C(=O)N[C@@H](CCC(=O)O)C(=O)N[C@H](C(=O)N[C@@H](CC(C)C)C(=O)N[C@@H](CCC(N)=O)C(=O)N[C@@H](Cc2cnc[nH]2)C(=O)N[C@H](C(=O)N[C@H](C(=O)N[C@@H](CC(=O)O)C(=O)N[C@@H](Cc2ccc(O)cc2)C(N)=O)[C@@H](C)CC)C(C)C)[C@@H](C)CC)C(C)C)C1)C(C)C)C(=O)N[C@@H](CC(C)C)C(=O)N[C@@H](CCC(N)=O)C(=O)N[C@@H](Cc1cnc[nH]1)C(=O)N[C@H](C(=O)N[C@H](C(=O)N[C@@H](CC(=O)O)C(=O)N[C@@H](Cc1ccc(O)cc1)C(N)=O)[C@@H](C)CC)C(C)C
Activity [2]: 40%

— ChEMBL document CHEMBL1154354, “Synthetic peptides containing a conserved sequence motif of the Id protein family modulate vascular smooth muscle cell phenotype” (Bioorg Med Chem Lett, 2009)
